The source of these data is patent publication US5677282A (Proscript, Inc., priority 1995, dated 1997).

The target of the assay is stromelysin (Homo sapiens, UniProt P08254). Kind of assay: Assay of stromelysin inhibition activity (fluorogenic coumarin peptide substrate). The class given is biochemical. As to conditions: trypsin-activated stromelysin 2 nM, H-150 buffer pH 7.4, room temperature; read-out: Ki(app). The method, then: Stromelysin was first activated with trypsin. This was done by preparing a reaction mixture in H-150 (H-150 consists of 10 mM CaCl2, 150 mM NaCl and 100 mM HEPES at pH 7.4) containing a final concentration of 25 μg/mL trypsin and 2.2 μM of stromelysin (Marcy et al., Biochemistry,30:6476 (1991); Koklitis et al., Biochem. J., 376:217 (1991). The reaction was incubated for 30 minutes at 37° C. and then quenched by adding trypsin inhibitor agarose to the reaction mixture at a 20 fold excess with respect to trypsin.
Chain of stromelysin (P08254 100-477): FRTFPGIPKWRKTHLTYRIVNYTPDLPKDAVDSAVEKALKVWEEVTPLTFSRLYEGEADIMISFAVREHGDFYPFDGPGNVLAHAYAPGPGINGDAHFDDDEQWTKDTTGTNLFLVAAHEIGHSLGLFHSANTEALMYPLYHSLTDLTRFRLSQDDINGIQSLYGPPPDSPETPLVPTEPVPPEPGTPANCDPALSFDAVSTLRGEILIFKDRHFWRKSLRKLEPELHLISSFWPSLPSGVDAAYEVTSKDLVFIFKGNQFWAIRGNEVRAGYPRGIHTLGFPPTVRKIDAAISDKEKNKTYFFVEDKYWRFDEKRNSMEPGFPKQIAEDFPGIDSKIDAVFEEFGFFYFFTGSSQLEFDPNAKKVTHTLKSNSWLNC
The reaction mixture was centrifuged at 14,000 rpm (16,000 ×g) for 30 minutes using an Eppendorf Centrifuge 5415C. The supernant, which contains activated stromelysin, was concentrated with a Centricon 10 (5000 g, 1 hour). A sample was analyzed by Bradford total protein assay and 12% SDS polyacrylamide gel electrophoresis.
All steps of the stromelysin inhibition assay were performed at room temperature. Assay solutions were prepared for each inhibitor tested. Activated stromelysin was added to a stirred covelte to a final concentration of 2 nM in 2 mL of H-150 buffer. 4 μL 5 mM coumarin peptide substrate was dissolved in DMSO and the initial rate of hydrolysis was measured for 100-200 seconds.
Substrate hydrolysis was assessed by fluorescence using a slit width of 10:10, excitation at 328 nm and emission at 393 nm. Ki was calculated based on the assumption of simple competitive inhibition and a substrate concentration much less than Km. 2 μL of 10 mM inhibitor in DMSO was added and the reduction in hydrolysis rate measured. The addition of 2 μL of inhibitor was continued until a 30-70% inhibition was observed.

Take `O=C(N[C@@H](Cc1ccc(N(Cc2ccccc2)Cc2ccccc2)cc1)C(=O)NC(C(=O)Nc1n[nH]c(=S)s1)c1ccccc1)OCc1ccccc1` (some centres unmarked) [5(N-benzyloxycarbonyl-(N',N'-dibenzylamino)phenylalanine-phepylglycylamino)-1,3,4-thiadiazole-2-thione]: the Ki was determined as 0.205 µM.
Next, `CC(C)(C)OC(=O)NCCCC[C@H](NC(=O)OCc1ccccc1)C(=O)N[C@@H](Cc1ccc(OCc2ccccc2)cc1)C(=O)NC(C(=O)Nc1n[nH]c(=S)s1)c1ccccc1` (some centres unmarked) [5-(N-benzyloxycarbonyl-lysyl(N-ε-t-butyloxycarbonyl)-tyrosyl(O-benzyl)-phenylglycylamino-1,3,4-thiadiazole-2-thione]: 0.148 µM; `CSCC[C@H](NC(=O)[C@H](CC(C)C)NC(=O)OCc1ccccc1)C(=O)Nc1n[nH]c(=S)s1` [5-(N-benzyloxycarbonyl-leucyl-methionylamino)-1,3,4-thiadiazole-2-thione]: 0.49 µM.
With `CC(C)[C@H](NC(=O)[C@H](Cc1ccc([N+](=O)[O-])cc1)NC(=O)OCc1ccccc1)C(=O)Nc1n[nH]c(=S)s1` [5-(benzyloxycarbonyl-(p-nitro)phenylalanyl-valylamino)-1,3,4-thiadiazole-2-thione] the figure was 0.18 µM; with `NCCCC[C@H](NC(=O)OCc1ccccc1)C(=O)N[C@@H](Cc1ccc(OCc2ccccc2)cc1)C(=O)N[C@H](C(=O)Nc1n[nH]c(=S)s1)c1ccccc1`, 1.89 µM; with `CC(C)[C@H](NC(=O)[C@H](Cc1cccc2ccccc12)NC(=O)OCc1ccccc1)C(=O)Nc1n[nH]c(=S)s1`, 0.19 µM.
Consider `CC(C)(C)[C@H](NC(=O)[C@H](Cc1ccc(OCc2ccccc2)cc1)NC(=O)OCc1ccccc1)C(=O)Nc1n[nH]c(=S)s1`, for which the Ki stood at 0.089 µM.
As to `CC(C)[C@H](NC(=O)[C@H](Cc1cc(I)c(O)c(I)c1)NC(=O)OCc1ccccc1)C(=O)Nc1n[nH]c(=S)s1`, the Ki was 0.097 µM.
Next, `CC(C)[C@H](NC(=O)[C@H](Cc1ccccc1)NS(=O)(=O)c1cccc2cccnc12)C(=O)Nc1n[nH]c(=S)s1` [5-(N-(8-quinolinesulfonyl)phenylalanyl-valylamino-1,3,4-thiadiazole-2-thione]: 0.531 µM; `O=C(N[C@@H](Cc1ccccc1F)C(=O)Nc1n[nH]c(=S)s1)OCc1ccccc1` [5-(N-benzyloxycarbonyl-(ortho-fluoro)phenylalanylamino)-1,3,4-thiadiazole-2-thione]: 0.63 µM; `CC(C)[C@H](NC(=O)[C@H](Cc1ccccc1)NC(=O)CCc1ccccc1)C(=O)Nc1n[nH]c(=S)s1` [5-(N-hydrocinamoyl-phenylalanyl-valylamino-1,3,4-thiadiazole-2-thione]: 0.267 µM.
With `CC[C@H](C)[C@H](NC(=O)OCc1ccccc1)C(=O)N[C@H](C(=O)Nc1n[nH]c(=S)s1)C(C)C` [5-(N-Benzyloxycarbonyl-isoleucyl-valylamino)-1,3,4-thiadiazole-2-thione] the figure was 0.94 µM; with `CC(C)C(NC(=O)C(Cc1ccc(OCc2ccc3ccccc3c2)cc1)NC(=O)OCc1ccccc1)C(=O)Nc1n[nH]c(=S)s1` (centres unmarked) [5-(N-benzyloxycarbonyl((O-methylene-2-naphthyl)tyrosyl)-valylamino)-1,3,4-thiadiazole-2-thione], 0.062 µM; with `O=C(N[C@@H](Cc1ccc(OCc2ccccc2)cc1)C(=O)N[C@H](C(=O)Nc1n[nH]c(=S)s1)C1CCCCC1)OCc1ccccc1`, 0.071 µM.
For `CC(C)[C@H](NC(=O)[C@H](Cc1ccc2ccccc2c1)NC(=O)OCc1ccccc1)C(=O)Nc1n[nH]c(=S)s1` [5-(N-benzyloxycarbonyl-(2-(2-naphthyl)alanyl-valylamino)-1,3,4-thiadiazole-2-thione], the Ki came out at 0.221 µM.
With `O=C(NC(CCC(=O)N(Cc1ccccc1)Cc1ccccc1)C(=O)NC(C(=O)Nc1n[nH]c(=S)s1)c1ccccc1)OCc1ccccc1` (centres unmarked) [5-(N-benzyloxycarbonyl-(γ-N,N-dibenzyl)glutamyl-phenylglycylamino)-1,3,4-thiadiazole2-thione], the Ki stood at 0.019 µM.
Next, `CC(C)C(NC(=O)C(Cc1ccccc1)NC(=O)c1ccc(OCc2ccccc2)cc1)C(=O)Nc1n[nH]c(=S)s1` (centres unmarked) [5-(N-(4-benzyloxy)benzoyl-phenylalanyl-valylamino)-1,3,4-thiadiazole-2-thione]: 0.061 µM; `CC(C)[C@H](NC(=O)[C@H](COCc1ccccc1)NC(=O)OCc1ccccc1)C(=O)Nc1n[nH]c(=S)s1` [5-(N-benzyloxycarbonyl-(O-benzyl)seryl-valylamino)-1,3,4-thiadiazole-2-thione]: 0.236 µM.
Next, `O=C(CC[C@H](NC(=O)OCc1ccccc1)C(=O)NC(C(=O)Nc1n[nH]c(=S)s1)c1ccccc1)NC(c1ccccc1)(c1ccccc1)c1ccccc1` (some centres unmarked) [5-(N-benzyloxycarbonyl-((γ-N-trityl)glutamyl)-phenylglycylamino)-1,3,4-thiadiazole-2-thione]: 0.05 µM.
Next, `CC(=O)N[C@@H](CC(C)C)C(=O)N[C@@H](CC(C)C)C(=O)Nc1n[nH]c(=S)s1` [5-(N-acetyl-leucyl-leucylamino)-1,3,4-thiadiazole-2-thione]: 6.44 µM; `CSc1ncccc1C(=O)NC(Cc1ccccc1)C(=O)NC(C(=O)Nc1n[nH]c(=S)s1)C(C)C` (centres unmarked) [5-(N-(2-methylthionicotyl)phenylalanyl-valyamino)-1,3,4-thiadiazole-2-thione]: 0.917 µM; `CCCC(NC(=O)OCC1c2ccccc2-c2ccccc21)C(=O)Nc1n[nH]c(=S)s1` (centres unmarked) [5-(N-(9-fluorenylmethoxycarbonyl-norvalyl)-1,3,4-thiadiazole-2-thione]: 0.509 µM.
As for `CC(C)C[C@H](NC(=O)[C@@H]1CCCN1C(=O)OCc1ccccc1)C(=O)N[C@@H](C)C(=O)Nc1n[nH]c(=S)s1` [5-(N-benzyloxycarbonyl-prolyl-leucyl-alanylamino)-1,3,4-thiadiazole-2-thione], the Ki was determined as 1.74 µM.
`CC(C)(NC(=O)C(Cc1ccc(OCc2ccccc2)cc1)NC(=O)OCc1ccccc1)C(=O)Nc1n[nH]c(=S)s1` (centres unmarked) [5-(N-benzyloxycarbonyl-((O-benzyl)tyrosyl)-amino-isobutyroylamino)-1,3,4-thiadiazole-2-thione]: the Ki worked out at 0.237 µM.
With `CC(C)[C@H](NC(=O)[C@H](Cc1ccccc1)NC(=O)OCc1ccccc1)C(=O)N[C@@H](Cc1c[nH]c2ccccc12)C(=O)Nc1n[nH]c(=S)s1` [5-(N-benzyloxycarbonyl-phenylalanyl-valyl-tryptonylamino)-1,3,4-thiadiazole-2-thione] the figure was 0.273 µM.
Next, `CC(C)C[C@H](NC(=O)OCc1ccccc1)C(=O)N[C@H](C(=O)Nc1n[nH]c(=S)s1)C(C)C` [5-(N-benzyloxycarbonyl-leucyl-valylamino)-1,3,4-thiadiazole-2-thione]: 0.66 µM.
Next, `CC(C)C[C@H](NC(=O)OCC1c2ccccc2-c2ccccc21)C(=O)Nc1n[nH]c(=S)s1` [5-(N-(9-fluorenylmethoxycarbonyl)leucylamino)-1,3,4-thiadiazole-2-thione]: 0.184 µM; `CC(C)(C)OC(=O)N[C@@H](CCc1ccccc1)C(=O)Nc1n[nH]c(=S)s1` [5-(N-t-butoxycarbonyl-homophenylalanylamino)-1,3,4-thiadiazole-2-thione]: 11.9 µM; `CCCCCCCCC(=O)N[C@@H](Cc1ccccc1)C(=O)N[C@H](C(=O)Nc1n[nH]c(=S)s1)C(C)C` [5-(N-nonanoyl-phenylalanyl-valylamino)-1,3,4-thiadiazole-2-thione]: 0.083 µM.
